Test results published in patent US20240158446A1, “CYCLIC COMPOUND HAVING SELECTIVE INHIBITORY ACTION ON KRAS OVER HRAS AND NRAS” (CHUGAI SEIYAKU KABUSHIKI KAISHA, priority 2021, published 2024).

How the values were obtained:
[1] = target: GDP-bound HRAS wild-type protein (Homo sapiens, UniProt P01112); assay: Binding to HRAS by surface plasmon resonance (SPR), Single Cycle Kinetics; conditions: SPR; GDP-bound HRAS wild-type protein vs GDP-bound KRAS wild-type protein; KD ratio class
[2] = target: GDP-bound KRAS wild-type protein (Homo sapiens, UniProt P01116); assay: Binding to KRAS by surface plasmon resonance (SPR), Single Cycle Kinetics; conditions: SPR, Single Cycle Kinetics, 1:1 binding model; GDP-bound KRAS wild-type protein; read-out: KRAS KD
Chain of GDP-bound KRAS wild-type protein (P01116 whole entry): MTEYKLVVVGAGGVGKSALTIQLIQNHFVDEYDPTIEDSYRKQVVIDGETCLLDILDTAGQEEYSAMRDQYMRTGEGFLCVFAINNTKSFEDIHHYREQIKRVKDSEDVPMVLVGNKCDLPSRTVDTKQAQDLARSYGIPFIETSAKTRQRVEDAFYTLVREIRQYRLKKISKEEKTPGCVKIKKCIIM

[3] = target: GDP-bound NRAS wild-type protein (Homo sapiens, UniProt P01111); assay: Binding to NRAS by surface plasmon resonance (SPR), Single Cycle Kinetics; conditions: SPR; GDP-bound NRAS wild-type protein vs GDP-bound KRAS wild-type protein; KD ratio class
Chain of GDP-bound NRAS wild-type protein (P01111 whole entry): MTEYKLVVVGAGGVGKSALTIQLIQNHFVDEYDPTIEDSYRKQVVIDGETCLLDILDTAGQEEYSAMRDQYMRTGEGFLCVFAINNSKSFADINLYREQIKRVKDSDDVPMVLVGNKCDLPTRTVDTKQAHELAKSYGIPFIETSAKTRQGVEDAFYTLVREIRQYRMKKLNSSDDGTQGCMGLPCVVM

[4] = system: human lung cancer strain NCI-H441;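 also: cell proliferation inhibition after four days measured by CellTiter-Glo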

Chain of GDP-bound HRAS wild-type protein (P01112 whole entry): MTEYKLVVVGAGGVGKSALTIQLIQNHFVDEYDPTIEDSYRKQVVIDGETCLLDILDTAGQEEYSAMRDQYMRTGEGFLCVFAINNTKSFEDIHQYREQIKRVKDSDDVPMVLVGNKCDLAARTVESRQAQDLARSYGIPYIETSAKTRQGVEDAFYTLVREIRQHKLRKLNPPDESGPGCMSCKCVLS

Row | SMILES | Kd [2] | IC50 [4] | HRAS/KRAS (ratio of KD value for HRAS to KD value for KRAS) [1] | NRAS/KRAS (ratio of KD value for NRAS to KD value for KRAS) [3]
1 | CCO[C@@H]1C[C@H]2C(=O)NC3(CCC3)C(=O)N(C)[C@@H](C3CCCC3)C(=O)N(C)[C@H](C(=O)N3CCOCC3)CC(=O)N(C)[C@@H](CC3CC3)C(=O)N[C@@H]([C@@H](C)CC)C(=O)N(C)CC(=O)N(C)[C@H]3C/C=C\CCN(C3=O)[C@@H](Cc3ccc(C)cc3)C(=O)N(C)CC(=O)N[C@@H](CCc3cc(F)c(C(F)(F)F)c(F)c3)C(=O)N2C1 [PP1408] | 0.22 nM | 37.6 nM | A (a compound having 10 or more and less than 20 is denoted as A) | A (a compound having 10 or more and less than 20 is denoted as A)
2 | CCO[C@@H]1C[C@H]2C(=O)NC3(CCC3)C(=O)N(C)[C@@H](C3CCCC3)C(=O)N(C)[C@H](C(=O)N(C)C)CC(=O)N(C)[C@@H](CC(C)C)C(=O)N[C@@H]([C@@H](C)CC)C(=O)N(C)CC(=O)N(C)[C@H]3C/C=C\CCN(C3=O)[C@@H](Cc3ccc(C)cc3)C(=O)N(C)CC(=O)N[C@@H](CCc3cc(F)c(C(F)(F)F)c(F)c3)C(=O)N2C1 [PP1414, (2S,8S,12R,14S,20S,23S,27S,30S,36S,38Z)-20-cyclopentyl-8-[2-[3,5-difluoro-4-(trifluoromethyl)phenyl]ethyl]-12-ethoxy-27-isobutyl-N,N,4,19,22,26,32,35-octamethyl-30-[(1S)-1-methylpropyl]-3,6,9,15,18,21,25,28,31,34,42-undecaoxo-2-(p-tolylmethyl)spiro[1,4,7,10,16,19,22,26,29,32,35-undecazatricyclo[34.5.1.0^10,14]dotetracont-38-ene-17,1′-cyclobutane]-23-carboxamide] | 0.074 nM | 4.4 nM | B (a compound having 3 or more and less than 10 is denoted as B) | A (a compound having 10 or more and less than 20 is denoted as A)
3 | CCO[C@@H]1C[C@H]2C(=O)NC3(CCC3)C(=O)N(C)[C@@H](C3CCCC3)C(=O)N(C)[C@H](C(=O)N3CCOCC3)CC(=O)N(C)[C@@H](CC(C)C)C(=O)N[C@@H]([C@@H](C)CC)C(=O)N(C)CC(=O)N(C)[C@H]3C/C=C\CCN(C3=O)[C@@H](Cc3ccc(C)cc3)C(=O)N(C)CC(=O)N[C@@H](CCc3cc(F)c(C(F)(F)F)c(F)c3)C(=O)N2C1 [PP1415] | 0.25 nM | 9.5 nM | A (a compound having 10 or more and less than 20 is denoted as A) | A (a compound having 10 or more and less than 20 is denoted as A)
4 | CCO[C@@H]1C[C@H]2C(=O)NC3(CCC3)C(=O)N(C)[C@@H](C3CCCC3)C(=O)N(C)[C@H](C(=O)N3CCCC3)CC(=O)N(C)[C@@H](CC(C)C)C(=O)N[C@@H]([C@@H](C)CC)C(=O)N(C)CC(=O)N(C)[C@H]3C/C=C\CCN(C3=O)[C@@H](Cc3ccc(C)cc3)C(=O)N(C)CC(=O)N[C@@H](CCc3cc(F)c(C(F)(F)F)c(F)c3)C(=O)N2C1 [PP1416] | 0.17 nM | 3.8 nM | A (a compound having 10 or more and less than 20 is denoted as A) | A (a compound having 10 or more and less than 20 is denoted as A)
5 | CCO[C@@H]1C[C@H]2C(=O)NC3(CCC3)C(=O)N(C)[C@@H](C3CCCC3)C(=O)N(C)[C@H](C(=O)N3CCOCC3)CC(=O)N(C)[C@@H](CC3CCCCC3)C(=O)N[C@@H]([C@@H](C)CC)C(=O)N(C)CC(=O)N(C)[C@H]3C/C=C\CCN(C3=O)[C@@H](Cc3ccc(C(F)(F)F)cc3)C(=O)N(C)CC(=O)N[C@@H](CCc3cc(F)c(C(F)(F)F)c(F)c3)C(=O)N2C1 [PP1418] | 0.24 nM | 29.9 nM | A (a compound having 10 or more and less than 20 is denoted as A) | AA (a compound having 20 or more is denoted as AA)
6 | CCO[C@@H]1C[C@H]2C(=O)NC3(CCC3)C(=O)N(C)[C@@H](C3CCCC3)C(=O)N(C)[C@H](C(=O)N3CCCC3)CC(=O)N(C)[C@@H](CC3CCCCC3)C(=O)N[C@@H]([C@@H](C)CC)C(=O)N(C)CC(=O)N(C)[C@H]3C/C=C\CCN(C3=O)[C@@H](Cc3ccc(C(F)(F)F)cc3)C(=O)N(C)CC(=O)N[C@@H](CCc3cc(F)c(C(F)(F)F)c(F)c3)C(=O)N2C1 [PP1419] | 0.26 nM | 40.4 nM | A (a compound having 10 or more and less than 20 is denoted as A) | AA (a compound having 20 or more is denoted as AA)

The next lines start with results.

Row | Kd [2] | IC50 [4] | SMILES | HRAS/KRAS (ratio of KD value for HRAS to KD value for KRAS) [1] | NRAS/KRAS (ratio of KD value for NRAS to KD value for KRAS) [3]
7 | 0.074 nM | 18.7 nM | CCO[C@@H]1C[C@H]2C(=O)NC3(CCC3)C(=O)N(C)[C@@H](C3CCCC3)C(=O)N(C)[C@H](C(=O)N(C)C)CC(=O)N(C)[C@@H](CC3CC3)C(=O)N[C@@H]([C@@H](C)CC)C(=O)N(C)CC(=O)N(C)[C@H]3C/C=C\CCN(C3=O)[C@@H](Cc3ccc(C)cc3)C(=O)N(C)CC(=O)N[C@@H](CCc3cc(F)c(C(F)(F)F)c(F)c3)C(=O)N2C1 [PP1407, (2S,8S,12R,14S,20S,23S,27S,30S,36S,38Z)-20-cyclopentyl-27-(cyclopropylmethyl)-8-[2-[3,5-difluoro-4-(trifluoromethyl)phenyl]ethyl]-12-ethoxy-N,N,4,19,22,26,32,35-octamethyl-30-[(1S)-1-methylpropyl]-3,6,9,15,18,21,25,28,31,34,42-undecaoxo-2-(p-tolylmethyl)spiro[1,4,7,10,16,19,22,26,29,32,35-undecazatricyclo[34.5.1.0^10,14]dotetracont-38-ene-17,1′-cyclobutane]-23-carboxamide] | A (a compound having 10 or more and less than 20 is denoted as A) | A (a compound having 10 or more and less than 20 is denoted as A)
8 | 0.21 nM | 43.5 nM | CCO[C@@H]1C[C@H]2C(=O)NC3(CCC3)C(=O)N(C)[C@@H](C3CCCC3)C(=O)N(C)[C@H](C(=O)N3CCCC3)CC(=O)N(C)[C@@H](CC3CC3)C(=O)N[C@@H]([C@@H](C)CC)C(=O)N(C)CC(=O)N(C)[C@H]3C/C=C\CCN(C3=O)[C@@H](Cc3ccc(C)cc3)C(=O)N(C)CC(=O)N[C@@H](CCc3cc(F)c(C(F)(F)F)c(F)c3)C(=O)N2C1 [PP1409] | A (a compound having 10 or more and less than 20 is denoted as A) | A (a compound having 10 or more and less than 20 is denoted as A)
9 | 0.32 nM | 51 nM | CCO[C@@H]1C[C@H]2C(=O)NC3(CCC3)C(=O)N(C)[C@@H](C3CCCC3)C(=O)N(C)[C@H](C)CC(=O)N(C)[C@@H](CC3CC3)C(=O)N[C@@H]([C@@H](C)CC)C(=O)N(C)CC(=O)N(C)[C@H]3C/C=C\CCN(C3=O)[C@@H](Cc3ccc(C)cc3)C(=O)N(C)CC(=O)N[C@@H](CCc3cc(F)c(C(F)(F)F)c(F)c3)C(=O)N2C1 [PP1410] | B (a compound having 3 or more and less than 10 is denoted as B) | B (a compound having 3 or more and less than 10 is denoted as B)
10 | 0.08 nM | 6 nM | CCO[C@@H]1C[C@H]2C(=O)NC3(CCC3)C(=O)N(C)[C@@H](C3CCCC3)C(=O)N(C)[C@H](C(=O)N(C)C)CC(=O)N(C)[C@@H](CC3CCCC3)C(=O)N[C@@H]([C@@H](C)CC)C(=O)N(C)CC(=O)N(C)[C@H]3C/C=C\CCN(C3=O)[C@@H](Cc3ccc(C)cc3)C(=O)N(C)CC(=O)N[C@@H](CCc3cc(F)c(C(F)(F)F)c(F)c3)C(=O)N2C1 [PP1411, (2S,8S,12R,14S,20S,23S,27S,30S,36S,38Z)-20-cyclopentyl-27-(cyclopentylmethyl)-8-[2-[3,5-difluoro-4-(trifluoromethyl)phenyl]ethyl]-12-ethoxy-N,N,4,19,22,26,32,35-octamethyl-30-[(1S)-1-methylpropyl]-3,6,9,15,18,21,25,28,31,34,42-undecaoxo-2-(p-tolylmethyl)spiro[1,4,7,10,16,19,22,26,29,32,35-undecazatricyclo[34.5.1.0^10,14]dotetracont-38-ene-17,1′-cyclobutane]-23-carboxamide] | B (a compound having 3 or more and less than 10 is denoted as B) | A (a compound having 10 or more and less than 20 is denoted as A)
11 | 0.19 nM | 23 nM | CCO[C@@H]1C[C@H]2C(=O)NC3(CCC3)C(=O)N(C)[C@@H](C3CCCC3)C(=O)N(C)[C@H](C(=O)N3CCCC3)CC(=O)N(C)[C@@H](CC3CCCC3)C(=O)N[C@@H]([C@@H](C)CC)C(=O)N(C)CC(=O)N(C)[C@H]3C/C=C\CCN(C3=O)[C@@H](Cc3ccc(C)cc3)C(=O)N(C)CC(=O)N[C@@H](CCc3cc(F)c(C(F)(F)F)c(F)c3)C(=O)N2C1 [PP1412] | A (a compound having 10 or more and less than 20 is denoted as A) | A (a compound having 10 or more and less than 20 is denoted as A)
12 | 0.42 nM | 62.5 nM | CCO[C@@H]1C[C@H]2C(=O)NC3(CCC3)C(=O)N(C)[C@@H](C3CCCC3)C(=O)N(C)[C@H](C)CC(=O)N(C)[C@@H](CC3CCCC3)C(=O)N[C@@H]([C@@H](C)CC)C(=O)N(C)CC(=O)N(C)[C@H]3C/C=C\CCN(C3=O)[C@@H](Cc3ccc(C)cc3)C(=O)N(C)CC(=O)N[C@@H](CCc3cc(F)c(C(F)(F)F)c(F)c3)C(=O)N2C1 [PP1413] | B (a compound having 3 or more and less than 10 is denoted as B) | B (a compound having 3 or more and less than 10 is denoted as B)
